Results reported in patent publication US11542233B2, “Compounds, compositions and methods of use” (Aquinnah Pharmaceuticals, Inc., priority 2016, dated 2023).

These compounds were tested on TDP-43 aggregation in PC12 cells stably expressing GFP-tagged mutant TDP-43 (TDP-43^Q33IK::eGFP) (assay: In vitro efficacy assay: inhibition of TDP-43 inclusions, concentration-response, fluorescence microscopy). Conditions: PC12 cells, 1 hour pre-treatment, 15 μM sodium arsenite for 23 hours, 10-point dose response curve.
Type: cell-based
How it was run: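 PC12 cells stably expressing TDP-43^Q33IK::eGFP pre-treated 1 h with compound, then stressed with 15 μM sodium arsenite for 23 h. Fluorescence microscopy gave the fraction of GFP-positive cells bearing aggregates; IC50 from concentration-response, reported in bins: A <100 nM, B 100–500 nM, C 500 nM–2 μM, D >2 μM.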

| IC50 | Compound |
| --- | --- |
| > 2000 nM | CCN(C(=O)c1cc2ccccc2[nH]1)[C@H]1CCC[C@@H](NCc2cccc(F)c2)C1 [Compound 122] |

Same assay, conditions: Rattus norvegicus, PC-12, PC12 cells, 1 hour pre-treatment, 15 μM sodium arsenite for 23 hours, 10-point dose response curve

| IC50 | Compound |
| --- | --- |
| 500 to 2000 nM | C#CCOc1ccc(CN[C@@H]2CCC[C@H](N(CC)C(=O)c3nc4cc(N)ccc4[nH]3)C2)cc1 [Compound 562, 5-amino-N-ethyl-N-((1S,3R)-3-((4-(prop-2-yn-1-yloxy)benzyl)amino)cyclohexyl)-1H-benzo[d]imidazole-2-carboxamide] |
| < 100 nM | CCN(C(=O)c1nc2c(C#N)cccc2[nH]1)[C@H]1CCC[C@@H](NCc2ccccc2)C1 [Compound 481, N-((1S,3R)-3-(benzylamino)cyclohexyl)-4-cyano-N-ethyl-1H-benzo[d]imidazole-2-carboxamide] |
| < 100 nM | CCN(C(=O)c1cc2cc(F)ccc2[nH]1)[C@H]1CCC[C@@H](NCc2cccc(F)c2)C1 [Compound 549] |
| 500 to 2000 nM | CCN(C(=O)c1cc2c([nH]1)CC(C)(C)OC2)[C@H]1CCC[C@@H](NCc2ccccc2)C1 [Compound 502, N-((1S,3R)-3-(benzylamino)cyclohexyl)-N-ethyl-6,6-dimethyl-1,4,6,7-tetrahydropyrano[4,3-b]pyrrole-2-carboxamide] |
| < 100 nM | CCN(C(=O)c1nc2cc(F)ccc2[nH]1)[C@H]1CCC[C@@H](NCc2cc(C3CC3)on2)C1 [Compound 552, N-((1S,3R)-3-(((5-cyclopropylisoxazol-3-yl)methyl)amino)cyclohexyl)-N-ethyl-5-fluoro-1H-benzo[d]imidazole-2-carboxamide] |
| < 100 nM | CCN(C(=O)c1cc2ncccc2[nH]1)[C@H]1CCC[C@H](NC(C)(C)c2ccccc2)C1 [Compound 411] |
| < 100 nM | CCN(C(=O)c1cc2cc(C3CC3)ccc2[nH]1)[C@H]1CCC[C@@H](NCc2ccccc2)C1 [Compound 543] |
| < 100 nM | C#CCOc1cccc(CN[C@@H]2CCC[C@H](N(CC)C(=O)c3nc4cc([N+](=O)[O-])ccc4[nH]3)C2)c1 [Compound 563] |
| > 2000 nM | CCN(C(=O)c1cc2ccccc2[nH]1)[C@H]1CCC[C@@H](NCc2ccnc(O)c2)C1 [Compound 452] |
| < 100 nM | CCN(C(=O)c1cc2ccccc2[nH]1)[C@H]1CCC[C@@H](NCc2cc(C3CC3)no2)C1 [Compound 455] |
| < 100 nM | CCN(C(=O)c1nc2ccccc2[nH]1)[C@H]1CCC[C@@H](NCc2cn3ccccc3n2)C1 [Compound 494, N-ethyl-N-((1S,3R)-3-((imidazo[1,2-a]pyridin-2-ylmethyl)amino)cyclohexyl)-1H-benzo[d]imidazole-2-carboxamide] |
| 100 to 500 nM | CCN(C(=O)c1cc2ccccc2[nH]1)[C@H]1CCC[C@@H](N[C@H](c2cncnc2)C(F)(F)F)C1 (single isomer, unassigned) [Compound 412] |
| 500 to 2000 nM | CCN(C(=O)c1cc2ccccc2[nH]1)[C@H]1CCC[C@@H](NCc2cnn(C)c2)C1 [Compound 461] |
| < 100 nM | CCN(C(=O)c1cc2ccccc2[nH]1)[C@H]1CCC[C@@H](N[C@H]2CCc3cc(F)ccc32)C1 [Compound 124] |
| > 2000 nM | CCN(C(=O)c1cc2ccccc2[nH]1)[C@H]1CCC[C@@H](N[C@@H](c2ccccc2)C(F)(F)F)C1 [Compound 415] |
| < 100 nM | O=C(c1cc2ncccc2[nH]1)N(CC(F)(F)F)[C@H]1CCC[C@@H](NCc2ccc(F)cc2)C1 [Compound 423] |
| < 100 nM | CCN(C(=O)c1nc2ccccc2[nH]1)[C@H]1CCC[C@@H](NCc2ccc3cccn3c2)C1 [Compound 514, N-ethyl-N-((1S,3R)-3-((indolizin-6-ylmethyl)amino)cyclohexyl)-1H-benzo[d]imidazole-2-carboxamide] |
| 100 to 500 nM | CCN(C(=O)c1cc2ncncc2[nH]1)[C@H]1CCC[C@@H](NCc2ccccc2)C1 [Compound 486] |
| 500 to 2000 nM | CCN(C(=O)c1cc2ccccc2[nH]1)[C@@H]1CCC[C@H](NCc2ccccc2)C1 [Compound 103] |

| IC50 | Compound |
| --- | --- |
| > 2000 nM | O=C(c1cc2ccccc2[nH]1)N(CC(F)(F)F)[C@H]1CCC[C@H](NCc2ccncc2)C1 [Compound 176] |
| < 100 nM | CCN(C(=O)c1cc2ncccc2[nH]1)[C@H]1CCC[C@@H](NCc2cnn(C)c2)C1 [Compound 448] |
| < 100 nM | CCN(C(=O)c1cc2ccccc2[nH]1)[C@H]1CCC[C@@H](NCc2oc3ccccc3c2C#N)C1 [Compound 496] |
| 500 to 2000 nM | CCN(C(=O)c1cc2ccccc2[nH]1)[C@H]1CCC[C@@H](N[C@H]2CCc3ccccc32)C1 [Compound 120] |
| 100 to 500 nM | CCN(C(=O)c1cc2ccccc2[nH]1)[C@H]1CCC[C@@H](NCc2ccncn2)C1 [Compound 137] |
| 100 to 500 nM | CCN(C(=O)c1cc2ccncc2[nH]1)[C@H]1CCC[C@@H](NCc2ccccc2)C1 [Compound 403] |
| > 2000 nM | CCN(C(=O)c1cc2ncccc2[nH]1)[C@H]1CCC[C@@H](NCc2nnc(C)s2)C1 [Compound 439] |
| 500 to 2000 nM | O=C(c1cc2ccccc2[nH]1)N(CC(F)(F)F)[C@H]1CCC[C@H](NCC2CCOCC2)C1 [Compound 182] |
| < 100 nM | CCN(C(=O)c1cc2ncccc2[nH]1)[C@H]1CCC[C@@H](NCc2ccc3nsnc3c2)C1 [Compound 442] |
| 100 to 500 nM | CCN(C(=O)c1cc2ccccc2[nH]1)[C@H]1CCC[C@@H](NCc2ncccn2)C1 [Compound 136] |
| 100 to 500 nM | CCN(C(=O)c1nc2ccccc2[nH]1)[C@H]1CCC[C@@H](NCc2ccc3nccn3c2)C1 [Compound 474] |
| < 100 nM | CCN(C(=O)c1cc2ccccc2[nH]1)[C@H]1CCC[C@@H](NCc2cc(C(C)C)no2)C1 [Compound 471] |
| < 100 nM | CCN(C(=O)c1cc2ncccc2[nH]1)[C@H]1CCC[C@@H](NCc2ccnc(OC)c2)C1 [Compound 440] |
| 100 to 500 nM | CCN(C(=O)c1cc2ccccc2[nH]1)[C@H]1CCC[C@@H](NCc2cc(C)no2)C1 [Compound 458] |
| 500 to 2000 nM | CCN(C(=O)c1cc2ncccc2[nH]1)[C@H]1CCC[C@@H](NCc2nnc(C)o2)C1 [Compound 468, N-ethyl-N-((1S,3R)-3-(((5-methyl-1,3,4-oxadiazol-2-yl)methyl)amino)cyclohexyl)-1H-pyrrolo[3,2-b]pyridine-2-carboxamide] |
| < 100 nM | CCN(C(=O)c1cc2ccccc2[nH]1)[C@H]1CCC[C@@H](NCc2ccnc(OC)c2)C1 [Compound 457] |
| 500 to 2000 nM | CCN(C(=O)c1cc2ccccc2[nH]1)[C@@H]1CCC[C@@H](NCc2ccccc2)C1 [Compound 104] |
| < 100 nM | CCN(C(=O)c1cc2ccccc2[nH]1)[C@H]1CCC[C@@H](NCc2ccc3ncoc3c2)C1 [Compound 464, N-((1S,3R)-3-((benzo[d]oxazol-6-ylmethyl)amino)cyclohexyl)-N-ethyl-1H-indole-2-carboxamide] |
| < 100 nM | CCN(C(=O)c1nc2cc(C#N)ccc2[nH]1)[C@H]1CCC[C@@H](NCc2cc3ccccc3o2)C1 [Compound 517] |
